Holding throughout (experiment): NCI anticancer screen, dose series, 48 h
Experiment [1] has as its system DLD-1.
In experiment [2] the test system is HT-29.
In experiment [3] the test system is KM12.
The test system of experiment [4] is M19-MEL.
For experiment [5], the system named is NCI-H226.
The test system of experiment [6] is SK-MEL-28.
The subject of experiment [7] is SNB-75.
In experiment [8] the test system is SR.
Experiment [9] relates to TK-10.
Experiment [10] relates to XF498.
Experiment [11] relates to ACHN.
Experiment [12] relates to HCT-15.
Experiment [13] relates to HL-60.
Experiment [14] has as its system RPMI-8226.
Experiment [15] relates to SN12C.
In experiment [16] the test system is UACC-257.

Data on 3 molecules can be found in ChEMBL document CHEMBL1201862, “PubChem BioAssay data set” (2004).

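Method: 48-hour compound exposure of cells in 96-well plates, five concentrations, linear interpolation of endpoints. GI50 is the concentration that inhibits growth by half.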 Calls of active or inactive are those of the source. Cut-off read from the data, not from the text of the source: active = GI50 up to about 1.1 µM and inactive = higher.

As to `C=CCN1C(=O)NC(=O)/C(=C/c2c3ccccc3cc3ccccc23)C1=O`, the GI50 in [1] was 18.9 µM (inactive); in experiment [2], 20.7 µM (inactive); in experiment [3], 16.2 µM (inactive); in experiment [4], 34.4 µM (inactive); in experiment [5], 26.3 µM (inactive); in [6], 22.4 µM (inactive). For the same molecule, the GI50 in [7] is 21.3 µM (inactive); in [8] it was 23.9 µM (inactive); in experiment [9], 20 µM (inactive); in [10], 21.8 µM (inactive).

Take `CN1Cc2ccccc2C2(COc3ccccc3C2=O)C1` (stereo not given): the GI50 is > 100 µM (inactive) in experiment [11]; 92.9 µM (inactive) in [1]; > 100 µM in [12]; 48.9 µM (inactive) in experiment [13]; 48 µM (inactive) in experiment [2]; > 100 µM (inactive) in [4]. The GI50 is 35.7 µM (inactive) in experiment [5]; 68.7 µM (inactive) in [14]; > 100 µM (inactive) in experiment [15]; > 100 µM (inactive) in experiment [7]; 31.8 µM (inactive) in experiment [8]; > 100 µM (inactive) in experiment [9]. For the same molecule, the GI50 in experiment [16] was 62.7 µM (inactive).

Turning to `CC1=C(Cl)C=CP(=O)(Oc2ccccc2)C1` (stereo not given), the GI50 in experiment [11] is > 100 µM (inactive); in experiment [12] it was 74.3 µM; in [13] it was > 10 µM (inactive); in experiment [3] it was > 100 µM (inactive); in experiment [6], 26.4 µM (inactive); in experiment [16], 71.6 µM (inactive). Also, the GI50 in experiment [10] is 57.7 µM (inactive).
